Source: US9695133B2, “Quinazolinone-based oncogenic-RAS-selective lethal compounds and their use” (THE TRUSTEES OF COLUMBIA UNIVERSITY IN THE CITY OF NEW YORK, priority 2012, dated 2017)
pEC50: −log10 of the molar value. Read-outs that look alike come from different tables or passages of the source.

Key:
[1] = tested on: BJeH, BJeHLT, BJeLR and DRD cells; format: cell-based; details: for RSL phenotype (oncogenic-RAS-selective lethality): four BJ-derived cell lines, with and without HRAS G12V; for Selectivity score: EC50 (BJeH)/EC50 (BJeLR)
HT-1080 cells [2] = experiment: Cell death rescue by ALOX and COX inhibitors in HT-1080 cells; format: cell-based, human; details: for suppression of cell death induced by RSL compounds / suppression of cell death induced by non-RSL compounds: HT-1080 cells, 10 μM BAI or 50 μM ZIL, 24 hours; for suppression of erastin-induced cell death: inhibitor concentrations of Table 2
Description: HT-1080 cells were seeded in 384-well plates, treated with the indicated amount of compounds with or without 10 μM of BAI or 50 μM of ZIL for 24 hours. The percent growth inhibition was determined using alamar blue.
Lethal compounds were added to HT-1080 cells in the presence or absence of ALOX or COX inhibitors in a 2-fold dilution series. The concentrations of the inhibitors are listed along with vendor information in Table 2. Cell viability was determined using alamar blue and percent growth inhibition calculated as described above.

BJeLR cells = experiment: RSL testing: growth inhibition (alamar blue) in BJeLR cells; format: cell-based; details: Homo sapiens
Description: Cell viability was determined using alamar blue and percent growth inhibition computed as described previously (Id.).

GPX4 = GPX4 knockdown (siGPX4) in HT-1080 cells
GFP-ALOX5 [3] = experiment: GFP-ALOX5 translocation in HT-1080 cells; format: cell-based, human
Description: HT-1080 cells stably expressing GFPALOX5 were treated with the indicated compounds under the conditions detailed in FIG. 13b. […] Note that digioxin (DIG) did translocate GFP-ALOX5 to the perinuclear membrane region in a small portion of the cell population (arrow). Digioxin is known to increase cellular calcium concentration that can translocate GFP-ALOX5, similarly to ionomycin. Scale bars, 60 μm.
(§1) A cDNA of ALOX5 (GeneBank ID: BC130332.1) was cloned into a pBabe-puro vector to express GFP fused ALOX5 (N-terminal GFP fusion) in cells. The plasmid was transfected into PLAT-GP cells (Cell Biolabs Inc., cat # RV-103, San Diego, Calif.) along with a pVSV-G helper plasmid to produce retrovirus harboring the expression plasmid. 0.2 million target cells (BJeH, BJeHLT, BJeLR or HT-1080 cells) were seeded in 10 cm tissue culture dishes and incubated in the tissue culture incubator for 1 day. A frozen stock of retrovirus solution was thawed at 37° C. for 2 minutes, and polybrene (Sigma, cat. # H9268) was added at a final concentration of 8 μg/mL. Culture medium was replaced with virus/polybrene mix and the culture dish was incubated for two hours with rocking every 30 minutes. After 2 hours, 10 mL of growth media was added to culture dish, and the culture was incubated further for 2 days. Cell lines stably expressing GFP-ALOX5 protein were selected using 1.5 μg/mL puromycin and used for the GFP-ALOX5 translocation assay.
Next, GFP-ALOX5-expressing HT-1080 cells were treated with these non-RSL and RSL compounds and changes in the location of GFP-ALOX5 were monitored as a measure of ALOX protein activation. […] Digoxin is known to elevate intracellular calcium (McGarry et al., 1993), which is likely to cause the translocation of GFP-ALOX5, similar to ionomycin. Note that ionomycin and digoxin are not RSL compounds and induce translocation of GFP-ALOX5 non-specifically in the BJ-derived cell lines (FIGS. 7 and 13). The results highlight the importance of selective ALOX activation for the induction of the RSL phenotype.

HT-1080 cells [4] = details: 24 hours
U-2 OS cells = experiment: U-2 OS cell viability (alamar blue) with TBHP or NAC; format: cell-based
GFP-ALOX5 [5] = experiment: GFP-ALOX5 translocation in BJ-derived cell lines; format: cell-based, human
Description: as §1
ALOX5 is one of the six human ALOX genes and plays a critical role in leukotriene synthesis. In the basal state, the ALOX5 protein remains in the nucleus; however, upon activation, it translocates to the nuclear membrane (Chen et al., 2001). […] Second, calcium chelators were not effective in suppressing erastin-induced cell death (Wolpaw et al., 2011).

[6] = cell line not in head, footnote names EC50 (BJeLR), read-out: EC50

CC(C)Oc1ccc(C=O)cc1-n1c(CN2CCN(C(=O)COc3ccc(Cl)cc3)CC2)nc2ccccc2c1=O [AE, 3-(2-((4-(2-(4-chlorophenoxy)ethanoyl)piperazin-1-yl)methyl)-4-oxoquinazolin-3(4H)-yl)-4-isopropoxybenzaldehyde]
RSL phenotype (oncogenic-RAS-selective lethality) [1]: retained the RSL phenotype

Nc1nc[nH]n1 [ATZ]
RSL phenotype (oncogenic-RAS-selective lethality) [1]: none of the other anti-oxidant targeting compounds displayed an RSL phenotype

O=c1cc(-c2ccccc2)oc2cc(O)c(O)c(O)c12 [BAI, Baicalein]
suppression of cell death induced by RSL compounds (HT-1080 cells [2]): strongly suppressed cell death induced by all RSL compounds
suppression of cell death induced by non-RSL compounds (HT-1080 cells [2]): not able to suppress cell death induced by eleven non-RSL compounds
suppression of erastin-induced cell death (HT-1080 cells [2]): strongly suppressed erastin-induced cell death

N#CC(=Cc1ccc(O)c(O)c1)C(=O)OCC=Cc1ccccc1 [CDC, cinnamyl-3,4-dihydroxy-a-cyanocinnamate]
suppression of erastin-induced cell death (HT-1080 cells [2]): strongly suppressed erastin-induced cell death

CCN(CC)Cc1ccc(OC(C)C)c(-n2c(CN3CCN(C(=O)COc4ccc(Cl)cc4)CC3)nc3ccccc3c2=O)c1 [Compound 15]
pEC50 (BJeLR cells; BJeLR, read-out: EC50 (BJeLR)): 5.77
Selectivity score [1]: 4.1

CC(C)Oc1ccc(N2CCN(C)CC2)cc1-n1c(CN2CCN(C(=O)COc3ccc(Cl)cc3)CC2)nc2ccccc2c1=O [Compound 17]
pEC50 (BJeLR cells; BJeLR, read-out: EC50 (BJeLR)): 6.05
Selectivity score [1]: 7.3

COCCN(CCOC)Cc1ccc(OC(C)C)c(-n2c(CN3CCN(C(=O)COc4ccc(Cl)cc4)CC3)nc3ccccc3c2=O)c1 [Compound 18]
pEC50 (BJeLR cells; BJeLR, read-out: EC50 (BJeLR)): 6.85
Selectivity score [1]: 5.9

CC(C)Oc1ccc(CN(C)CCC#N)cc1-n1c(CN2CCN(C(=O)COc3ccc(Cl)cc3)CC2)nc2ccccc2c1=O [Compound 19]
pEC50 (BJeLR cells; BJeLR, read-out: EC50 (BJeLR)): 6.59
Selectivity score [1]: 5.1

CC(C)Oc1ccc(CN(C)CCO)cc1-n1c(CN2CCN(C(=O)COc3ccc(Cl)cc3)CC2)nc2ccccc2c1=O [Compound 21]
pEC50 (BJeLR cells; BJeLR, read-out: EC50 (BJeLR)): 6.44
Selectivity score [1]: 3.7

CC(C)Oc1ccc(CNCCCN(C)C)cc1-n1c(CN2CCN(C(=O)COc3ccc(Cl)cc3)CC2)nc2ccccc2c1=O [Compound 22]
pEC50 (BJeLR cells; BJeLR, read-out: EC50 (BJeLR)): 5.64
Selectivity score [1]: 3.3

CC(C)Oc1ccc(CN2CCN(CCO)CC2)cc1-n1c(CN2CCN(C(=O)COc3ccc(Cl)cc3)CC2)nc2ccccc2c1=O [Compound 23]
pEC50 (BJeLR cells; BJeLR, read-out: EC50 (BJeLR)): 5.92
Selectivity score [1]: 2.8

CC(C)Oc1ccc(CNCCOCCO)cc1-n1c(CN2CCN(C(=O)COc3ccc(Cl)cc3)CC2)nc2ccccc2c1=O [Compound 24]
pEC50 (BJeLR cells; BJeLR, read-out: EC50 (BJeLR)): 5.68
Selectivity score [1]: 2.5

CC(C)Oc1ccc(CN2CCOCC2)cc1-n1c(CN2CCN(C(=O)COc3ccc(Cl)cc3)CC2)nc2ccccc2c1=O [Compound 40, 2-((4-(2-(4-chlorophenoxy)ethanoyl)piperazin-1-yl)methyl)-3-(2-isopropoxy-5-(morpholinomethyl)phenyl)quinazolin-4(3H)-one]
pEC50 (BJeLR cells; BJeLR, read-out: EC50 (BJeLR)): 6.89
pEC50 (BJeLR cells; [6]): 6.89

CC(C)Oc1c(CN2CCOCC2)cccc1-n1c(CN2CCN(C(=O)COc3ccc(Cl)cc3)CC2)nc2ccccc2c1=O [Compound 51]
pEC50 (BJeLR cells; [6]): 5.93

N#CC(=C(/N)Sc1ccccc1N)/C(C#N)=C(\N)Sc1ccccc1N [Compound U0126]
rescue of siGPX4-induced cell death (GPX4): rescued

O=[N+]([O-])c1ccc(Cl)c(Cl)c1 [DCNB]
RSL phenotype (oncogenic-RAS-selective lethality) [1]: none of the other anti-oxidant targeting compounds displayed an RSL phenotype

CCN(CC)C(=S)S [DETC]
RSL phenotype (oncogenic-RAS-selective lethality) [1]: none of the other anti-oxidant targeting compounds displayed an RSL phenotype

CN(C)C(=O)/N=N/C(=O)N(C)C [DIA]
RSL phenotype (oncogenic-RAS-selective lethality) [1]: none of the other anti-oxidant targeting compounds displayed an RSL phenotype

CCc1ccc(/C=C2\SC(=S)N(CCC(=O)NCCCN3CCOCC3)C2=O)cc1 [DPI2]
GFP-ALOX5 translocation to the nuclear membrane (GFP-ALOX5 [3]): translocated GFP-ALOX5 to the nuclear membrane

CC(C)c1onc(C(=O)N2CCN(C(c3ccccc3)c3ccccc3)CC2)c1[N+](=O)[O-] [DPI10]
GFP-ALOX5 translocation to the nuclear membrane (GFP-ALOX5 [3]): translocated GFP-ALOX5 to the nuclear membrane

Nc1nc(CCl)nc(Nc2ccc3ccccc3c2)n1 [DPI17]
GFP-ALOX5 translocation to the nuclear membrane (GFP-ALOX5 [3]): translocated GFP-ALOX5 to the nuclear membrane

N[C@@H](CCC(=O)N[C@@H](CS)C(=O)NCC(=O)O)C(=O)O [GSH, reduced glutathione]
rescue from erastin lethality by GSH supplementation (HT-1080 cells [4]; 1 mM GSH): rescued cells from erastin lethality

COc1ccc2c(c1)c(CC(=O)O)c(C)n2C(=O)c1ccc(Cl)cc1 [Indomethacin]
suppression of erastin-induced cell death (HT-1080 cells [2]): only minimally effective in suppressing erastin lethality

CC(=O)N[C@@H](CS)C(=O)O [NAC, N-acetyl-cysteine]
rescue from erastin lethality by NAC supplementation (U-2 OS cells): rescued cells from erastin lethality

c1ccc2c(c1)SCc1c-2[nH]c2ccccc12 [PD-146176]
suppression of erastin-induced cell death (HT-1080 cells [2]): strongly suppressed erastin-induced cell death

CC(C)Oc1ccncc1-n1c(CN2CCN(C(=O)COc3ccc(Cl)cc3)CC2)nc2ccccc2c1=O [PYR, 2-((4-(2-(4-chlorophenoxy)ethanoyl)piperazin-1-yl)methyl)-3-(4-isopropoxypyridin-3-yl)quinazolin-4(3H)-one]
RSL phenotype (oncogenic-RAS-selective lethality) [1]: did not display lethality

CN[C@@H]1C[C@H]2O[C@@](C)([C@@H]1OC)n1c3ccccc3c3c4c(c5c6ccccc6n2c5c31)C(=O)NC4 [STS, Staurosporine]
GFP-ALOX5 translocation to the nuclear membrane (GFP-ALOX5 [3]): did not

CC(c1cc2ccccc2s1)N(O)C(N)=O (stereo not drawn) [Zileuton]
suppression of cell death induced by RSL compounds (HT-1080 cells [2]): strongly suppressed cell death induced by all RSL compounds
suppression of cell death induced by non-RSL compounds (HT-1080 cells [2]): not able to suppress cell death induced by eleven non-RSL compounds
suppression of erastin-induced cell death (HT-1080 cells [2]): strongly suppressed erastin-induced cell death
rescue of siGPX4-induced cell death (GPX4; 10 μM U0126, 100 μM Vit. E, 100 μM DFOM, 50 μM ZIL): rescued

CC(C)Oc1ccccc1-n1c(CN2CCN(C(=O)c3ccc(Cl)cc3)CC2)nc2ccccc2c1=O [dMK, 2-((4-(4-chlorophenylcarbonyl)piperazin-1-yl)methyl)-3-(2-isopropoxyphenyl)quinazolin-4(3H)-one]
RSL phenotype (oncogenic-RAS-selective lethality) [1]: did not display lethality

C[C@H]1O[C@@H](O[C@H]2[C@@H](O)C[C@H](O[C@H]3[C@@H](O)C[C@H](O[C@H]4CC[C@@]5(C)[C@H](CC[C@@H]6[C@@H]5C[C@@H](O)[C@]5(C)[C@@H](C7=CC(=O)OC7)CC[C@]65O)C4)O[C@@H]3C)O[C@@H]2C)C[C@H](O)[C@@H]1O [digoxin, Digoxin]
GFP-ALOX5 translocation to the nuclear membrane (GFP-ALOX5 [3]): induced GFP-ALOX5 translocation

C[C@H](CCC(=O)O)C[C@H](C)C[C@H](C)C(=O)/C=C(\O)[C@H](C)C[C@H](C)C/C=C/[C@@H](C)[C@@H](O)[C@@H](C)[C@@H](O)C[C@@H]1CC[C@@](C)([C@H]2CC[C@@](C)([C@@H](C)O)O2)O1 [ionomycin]
GFP-ALOX5 translocation to the nuclear membrane (GFP-ALOX5 [5]): induced localization of GFP-ALOX5 to the nuclear membrane in all BJ-derived cell lines

Vitamin E [Vit. E]
rescue of siGPX4-induced cell death (GPX4): rescued

lysophosphatidyl choline [lyso-PC]
effect of lyso-PC on erastin-induced cell death (HT-1080 cells [4]): modestly sensitized cells to erastin-induced cell death
differential cytotoxicity between BJeH and BJeLR ([1]; lyso-PC alone, 24 hours): did not show differential cytotoxicity
